Key:
[1] = tested on: UPR induction (CHOP and ATF4 mRNA) in HEK293T cells; assay: UPR induction by thapsigargin in HEK293T cells, CHOP and ATF4 mRNA by qPCR; format: cell-based; details: HEK293T cells pretreated with ISRIB vs control formulation, then 1 micromolar thapsigargin
Description: In another experiment, HEK293T cells were pretreated with a control formulation or ISRIB, […], then exposed […] to 1 micromolar thapsigargin for 2 hours. CHOP and ATF4 mRNA levels were then assessed by qPCR.

[2] = tested on: wild type mice exposed to damaging noise; assay: Noise-induced hearing loss in wild type mice, ABR threshold; format: in vivo, mouse; details: 2.5 mg/kg intraperitoneal 4 hours before damaging noise, treated vs untreated (FIG. 9, N=3)
Description: FIG. 9 depicts ABR threshold to click, 8 kHz, and 16 kHz stimuli in mice treated with ISRIB (dotted line, N=3)) compared with vehicle (solid line, N=3). All values are means with error bars indicating the standard error of the mean.
Wild type mice were subjected to the same treatment and cochleae were subsequently removed and apoptotic ER response gene expression was assessed.
ISRIB was delivered […] via intraperitoneal injection 4 hours before exposure to damaging noise, at 2.5 mg/kg.

[3] = tested on: SERCA2b; fibroblast cells from TMTC4 KO and wild type mice; assay: UPR stress pathway gene mRNA in fibroblasts treated with thapsigargin; format: cell-based, mouse; details: TMTC4 KO compared to wild type cells
Description: Fibroblast cells were generated from TMTC4 KO mice and wild type mice. One group of cells was treated with the SERCA2b inhibitor thapsigargin. The expression of UPR stress pathway genes spliced X-box binding protein 1 (S-XBP1), the molecular chaperone BiP, and the pro-apoptotic protein CHOP were measured by mRNA quantification. The expression of the UPR stress response markers was low and was about equal in untreated wild type and TMTC4 KO cells.

[4] = tested on: SERCA2b; cochlear explants from TMTC4 KO and wild type mice; assay: UPR stress pathway and Caspase 3 mRNA in cochlear explants treated with thapsigargin; format: cell-based, mouse; details: thapsigargin treated cochlear explants from TMTC4 KO and wild type mice (FIG. 2)
Description: FIG. 2. SYBR Green measurement of qPCR product measuring RNA expression of spliced X-box binding protein 1 (S-XBP1), the molecular chaperone BiP, the pro-apoptotic protein CHOP, and Caspase 3 in cochlear explants from mice. WT=wild type and KO=TMTC4 knockout mice. +TG indicates explants treated with the SERCA2b inhibitor thapsigargin. In another experiment, cochlear explants from TMTC4 KO and wild type mice were extracted. One group of explants was treated with the SERCA2b inhibitor thapsigargin. The expression of UPR stress pathway genes S-XBP1 BiP, CHOP, and the apoptotic gene Caspase 3 were measured by mRNA quantification (FIG. 2). In the untreated explants, the expression of the UPR stress response markers and of Caspase3 were about equal.

[5] = tested on: wild type fibroblasts (ER Ca2+); assay: Ca2+ quantification in intracellular compartments of fibroblasts by Mag-FURA-2 imaging; format: cell-based, mouse; details: ten minutes with 1 micromolar ATP and 1 micromolar thapsigargin
Description: In one experiment, quantification of Ca2^+ was performed in intracellular compartments of fibroblasts by Mag-FURA-2 imaging. In wild type fibroblasts, an area of high Ca2^+ concentration in the perinuclear region corresponding to the ER was observed. […] Quantification of the Ca2^+ gradient between ER and cytosol compartments in fibroblasts was also measured in both wild type and TMTC4 KO mice.

Row | SMILES | ATF4 mRNA expression [1] | CHOP mRNA expression [1] | ABR threshold to clicks at 8 kHz and 16 kHz [2] | expression of UPR stress response markers (S-XBP1, BiP, CHOP) mRNA [3] | expression of UPR stress response markers (S-XBP1, BiP, CHOP) and Caspase 3 mRNA [4] | Ca2+ concentration of perinuclear region (ER) [5]
1 | O=C(COc1ccc(Cl)cc1)N[C@H]1CC[C@H](NC(=O)COc2ccc(Cl)cc2)CC1 [ISRIB, trans-N,N′-(cyclohexane-1,4-diyl)bis(2-(4-chlorophenoxy)acetamide)] | significant and substantial reduction | significant and substantial reduction | lower in treated mice than in untreated mice | – | – | –
2 | C/C=C(/C)C(=O)O[C@H]1C(C)=C2[C@H]([C@@H]1OC(=O)CCCCCCC)[C@@](C)(OC(C)=O)C[C@H](OC(=O)CCC)[C@@]1(O)[C@H]2OC(=O)[C@@]1(C)O [thapsigargin] | – | – | – | substantially elevated in the TMTC4 KO cells compared to wild type cells | substantially elevated | reduced to that observed in the surrounding cytosol

From patent US11957655B2, “Methods of treating hearing loss” (The Regents of the University of California, priority 2015, dated 2024)
